In patent US10717720B2, “Modified compound of andrographolide” (Heilongjiang Zhenbaodao Pharmaceutical Co., Ltd., priority 2015, dated 2020):

What follows are compounds tested on LPS-induced IL-6 release level from THP-1 cells (assay: Test of IL-6 release from THP-1 cells (LPS-induced, IL-6 in supernatant detected by CBA)). Settings: Homo sapiens, THP-1, 24 h, read-out: Inhibition rate @ 10 uM.
Type: cell-based
Procedure: Test of IL-6 Release from THP-1 Cells
The inhibitory effect of the compound on LPS-induced IL-6 release level from THP-1 cells was evaluated by measuring the level of IL-6 in the cell culture supernatant.
4 ul was taken from each above solution and added to lml of culture solution to make 120 uM, 40 uM, 12 uM, 4 uM. 50 ul per well was taken and added to wells with cells to give final concentrations of 30 uM, 10 uM, 3 uM, and 1 uM, respectively. Dexamethasone was added as a positive drug into an individual cell well with a final concentration of 100 nM. • c) Cell stimulation
The LPS 1 mg/ml solution was diluted to 800 ng/ml with the culture solution and added to the cell culture wells at 50 ul/well. • d) Cell incubation and detection
The cell culture plate was placed in a 37° C. incubator, and the supernatant was collected after culturing for 24 hours. The level of IL-6 in the supernatant was detected by CBA.

Structure (SMILES)	inhibition at 10 µM [%]
C=C1CCC2[C@]3(C)CO[C@@H](C4CCCC4)O[C@@H]3CC[C@@]2(C)[C@@H]1CCOc1ccncn1 (stereo partly drawn) [Compound 312, 4-(2-((3R,4aR,6aS,7R,10bR)-3-cyclopentyl-6a,10b-dimethyl-8-dihydromethylenedecahydro-1H-naphtho[2,1-d][1,3]dioxin-7-yl)ethoxy)pyrimidine]	< 30
C=C1CCC2[C@]3(C)CO[C@@H](C4CCCC4)O[C@@H]3CC[C@@]2(C)[C@@H]1CCOC1CN(C(C)C)C1 (stereo partly drawn) [Compound 313, 3-(2-((3R,4aR,6aS,7R,10bR)-3-cyclopentyl-6a,10b-dimethyl-8-dihydromethylenedecahydro-1H-naphtho[2,1-d][1,3]dioxin-7-yl)ethoxy)-1-isopropyl azetidine]	30 to 60

Same assay, conditions: Homo sapiens; inflammatory factor IL-6 detected by CBA; compound 10 uM; LPS-stimulated THP-1 cells, supernatant after 24 hours; read-out: Inhibition rate @ 10 uM

Structure (SMILES)	inhibition at 10 µM [%]
C=C1CCC2[C@]3(C)CO[C@@H](C4CCCC4)O[C@@H]3CC[C@@]2(C)[C@@H]1CCN1CCC(CO)CC1 (stereo partly drawn) [Compound 002, (1-(2-((3R,4aR,6aS,7R,10bR)-3-cyclopentyl-6a,10b-dimethyl-8-methylene-decahydro-1H-naphtho[2,1-d][1,3]dioxin-7-yl)ethyl)piperidin-4-yl)methanol]	< 30
C=C1CCC2[C@]3(C)CO[C@@H](C4CCCC4)O[C@@H]3CC[C@@]2(C)[C@@H]1CCN1CCC(OC)C1 (some centres unmarked) [Compound 116]	30 to 60
C=C1CCC2[C@]3(C)CO[C@@H](C4CCCC4)O[C@@H]3CC[C@@]2(C)[C@@H]1CCN1CCOCC1 (stereo partly drawn) [Compound 123, 4-(2-((3R,4aR,6aS,7R,10bR)-3-cyclopentyl-6a,10b-dimethyl-8-methylenedecahydro-1H-naphtho[2,1-d][1,3]dioxin-7-yl)ethyl)morpholine]	< 30
C=C1CCC2[C@]3(C)CO[C@@H](c4ccc(F)c(F)c4)O[C@@H]3CC[C@@]2(C)[C@@H]1CCN1CCC(CO)CC1 (stereo partly drawn) [Compound 130, (1-(2-((3R,4aR,6aS,7R,10bR)-3-(3,4-difluorophenyl)-6a,10b-dimethyl-8-methylenedecahydro-1H-naphtho[2,1-d][1,3]dioxin-7-yl)ethyl)piperidin-4-yl)methanol]	< 30
C=C1CCC2[C@]3(C)CO[C@@H](C4CCCC4)O[C@@H]3CC[C@@]2(C)[C@@H]1CCN1CCC[C@H]1C(=O)OC (some centres unmarked) [Compound 147]	< 30
C=C1CCC2[C@]3(C)CO[C@@H](C4CCCC4)O[C@@H]3CC[C@@]2(C)[C@@H]1CCN1CC[C@H](NC(C)=O)C1 (stereo partly drawn) [Compound 149, N-((3 S)-1-(2-((3R,4aR,6aS,7R,10bR)-3-cyclopentyl-6a,10b-dimethyl-8-methylenedecahydro-1H-naphtho[2,1-d][1,3]dioxain-7-yl)ethyl)pyrrolidin-3-yl)acetamide]	30 to 60
C=C1CCC2[C@]3(C)CO[C@@H](C4CCCC4)O[C@@H]3CC[C@@]2(C)[C@@H]1CCN1CCC(N(CC)CC)CC1 (stereo partly drawn) [Compound 150, 1-(2-((4aR,6aS,7R,10bR)-3-cyclopentyl-6a,10b-dimethyl-8-methylene-decahydro-1H-naphtho[2,1-d][1,3]dioxin-7-yl)ethyl)-N,N-diethylpiperidin-4-amine]	30 to 60
C=C1CCC2[C@]3(C)CO[C@@H](C4CCCC4)O[C@@H]3CC[C@@]2(C)[C@@H]1CCN1CCC(N2CCCC2)CC1 (stereo partly drawn) [Compound 160, 1-(2-((3R,4aR,6aS,7R,10bR)-3-cyclopentyl-6a,10b-dimethyl-8-methylene-decahydro-1H-naphtho[2,1-d][1,3]dioxin-7-yl)ethyl)-4-(pyrrolidin-1-yl)piperidine]	> 60
C=C1CCC2[C@]3(C)CO[C@@H](C4CCCC4)O[C@@H]3CC[C@@]2(C)[C@@H]1CCN1CCCC1C(=O)O (stereo partly drawn) [Compound 163, 1-(2-((3R,4aR,6aS,7R,10bR)-3-cyclopentyl-6a,10b-dimethyl-8-methylenedecahydro-1H-naphtho[2,1-d][1,3]dioxin-7-yl)ethyl)pyrrolidine-2-carboxylic acid]	> 60
C=C1CCC2[C@]3(C)CO[C@@H](C4CCCC4)O[C@@H]3CC[C@@]2(C)[C@@H]1CCN1CCC2(CCN(C)CC2)C1 (some centres unmarked) [Compound 181]	< 30
C=C1CCC2[C@]3(C)CO[C@@H](C4CCCC4)O[C@@H]3CC[C@@]2(C)[C@@H]1CCN(CCO)CCO (stereo partly drawn) [Compound 191, 3-((2-((3R,4aR,6aS,7R,10bR)-3-cyclopentyl-6a,10b-dimethyl-8-methylene-decahydro-1H-naphtho[2,1-d][1,3]dioxin-7-yl)ethyl)amino)N,N-diethanolamine]	< 30
C=C1CCC2[C@]3(C)CO[C@@H](C4CCCC4)O[C@@H]3CC[C@@]2(C)[C@@H]1CCN1CCOC1=O (stereo partly drawn) [Compound 196, 3-(2-((3R,4aR,6aS,7R,10bR)-3-cyclopentyl-6a,10b-dimethyl-8-decahydromethylene-1H-naphtho[2,1-d][1,3]dioxin-7-yl)ethyl)oxazolidin-2-one]	30 to 60
C=C1CCC2[C@]3(C)CO[C@@H](C4CCCC4)O[C@@H]3CC[C@@]2(C)[C@@H]1CCNc1cnoc1 (stereo partly drawn) [Compound 207, N-(2-((3R,4aR,6aS,7R,10bR)-3-cyclopentyl-6a,10b-dimethyl-8-decahydromethylene-1H-naphtho[2,1-d][1,3]dioxin-7-yl)ethyl)isoxazol-4-amine]	30 to 60
C=C1CCC2[C@]3(C)CO[C@@H](c4ccc(F)c(F)c4)O[C@@H]3CC[C@@]2(C)[C@@H]1CCN1CCN(C)C1=O (stereo partly drawn) [Compound 212, 3-(2-((3R,4aR,6aS,7R,10bR)-3-(3,4-difluorophenyl)-6a,10b-dimethyl-8-decahydromethylene-1H-naphtho[2,1-d][1,3]dioxin-7-yl)ethyl)-1-methyltetrahydroimidazol-2-one]	> 60
C=C1CCC2[C@]3(C)CO[C@@H](c4ccc(F)c(F)c4)O[C@@H]3CC[C@@]2(C)[C@@H]1CCN1C(=O)CCC1=O (stereo partly drawn) [Compound 214, 1-(2-((3R,4aR,6aS,7R,10bR)-3-(3,4-difluorophenyl)-6a, 10b-dimethyl-8-methylenedecahydro-1H-naphtho[2,1-d][1,3]dioxin-7-yl)ethyl)pyrrolidine-2,5-dione]	> 60
C=C1CCC2[C@]3(C)CO[C@@H](c4ccc(F)c(F)c4)O[C@@H]3CC[C@@]2(C)[C@@H]1CCN1C(=O)COC1=O (stereo partly drawn) [Compound 215, 3-(2-((3R,4aR,6aS,7R,10bR)-3-(3,4-difluorophenyl)-6a, 10b-dimethyl-8-methylenedecahydro-1H-naphtho[2,1-d][1,3]dioxin-7-yl)ethyl)oxazolidine-2,4-dione]	< 30
C=C1CCC2[C@]3(C)CO[C@@H](c4ccc(F)c(F)c4)O[C@@H]3CC[C@@]2(C)[C@@H]1CCN1C(=O)CNC1=O (stereo partly drawn) [Compound 230, 3-(2-((3R,4aR,6aS,7R,10bR)-3-(3,4-difluorophenyl)-6a,10b-dimethyl-8-methylenedecahydro-1H-naphtho[2,1-d][1,3]dioxin-7-yl)ethyl)tetrahydroimidazole-2,4-dione]	> 60
C=C1CCC2[C@]3(C)CO[C@@H](C4CCCC4)O[C@@H]3CC[C@@]2(C)[C@@H]1CCN1CCC(C(=O)O)CC1 (stereo partly drawn) [Compound 256, 1-(2-((3R,4aR,6aS,7R,10bR)-3-cyclopentyl-6a,10b-dimethyl-8-methylene-decahydro-1H-naphtho[2,1-d][1,3]dioxin-7-yl)ethyl)piperidin-4-carboxylic acid]	< 30
C=C1CCC2[C@](C)(CO)[C@H](O)CC[C@@]2(C)[C@@H]1CCN1CCC(CO)CC1 (some centres unmarked) [Compound 265]	< 30
C=C1CCC2[C@]3(C)CO[C@@H](C4CCCC4)O[C@@H]3CC[C@@]2(C)[C@@H]1CCOCCCN(C)C (stereo partly drawn) [Compound 281, 3-(2-((3R,4aR,6aS,7R,10bR)-3-cyclopentyl-6a,10b-dimethyl-8-dihydromethylenedecahydro-1H-naphtho[2,1-d][1,3]dioxin-7-yl)ethoxy)-N,N-dimethylpropan-1-amine]	30 to 60
C=C1CCC2[C@]3(C)CO[C@@H](C4CCCC4)O[C@@H]3CC[C@@]2(C)[C@@H]1CCN(CCO)CCCN(C)C (stereo partly drawn) [Compound 284, 2-((2-((3R,4aR,6aS,7R,10bR)-3-cyclopentyl-6a, 10b-dimethyl-8-methylene-decahydro-1H-naphtho[2,1-d][1,3]dioxin-7-yl)ethyl)(3-(dimethylamino)propyl)amino)ethanol]	30 to 60
C=C1CCC2[C@]3(C)CO[C@@H](C4CCCC4)O[C@@H]3CC[C@@]2(C)[C@@H]1CCOc1cnn(C)c1 (stereo partly drawn) [Compound 289, 4-(2-((3R,4aR,6aS,7R,10bR)-3-cyclopentyl-6a,10b-dimethyl-8-dihydromethylenedecahydro-1H-naphtho[2,1-d][1,3]dioxin-7-yl)ethoxy)-2-methyl-1H-pyrazole]	> 60
C=C1CCC2[C@]3(C)CO[C@@H](C4CCCC4)O[C@@H]3CC[C@@]2(C)[C@@H]1CCOc1ccncc1 (stereo partly drawn) [Compound 297, 4-(2-((3R,4aR,6aS,7R,10bR)-3-cyclopentyl-6a,10b-dimethyl-8-dihydromethylenedecahydro-1H-naphtho[2,1-d][1,3]dioxin-7-yl)ethoxy)pyridine]	> 60
C=C1CCC2[C@]3(C)CO[C@@H](C4CCCC4)O[C@@H]3CC[C@@]2(C)[C@@H]1CCOc1cccnc1 (stereo partly drawn) [Compound 310, 3-(2-((3R,4aR,6aS,7R,10bR)-3-cyclopentyl-6a,10b-dimethyl-8-dihydromethylenedecahydro-1H-naphtho[2,1-d][1,3]dioxin-7-yl)ethoxy)-pyridine]	> 60
